Assays:
[1] = target: T1, Serine/threonine-protein kinase TNNI3K (Homo sapiens) (UniProt Q59H18); experiment: Selectivity interaction (KinomeScan (DiscoverX)) EUB0001079a TNNI3K; details: at 1 µM
T1 sequence (whole entry): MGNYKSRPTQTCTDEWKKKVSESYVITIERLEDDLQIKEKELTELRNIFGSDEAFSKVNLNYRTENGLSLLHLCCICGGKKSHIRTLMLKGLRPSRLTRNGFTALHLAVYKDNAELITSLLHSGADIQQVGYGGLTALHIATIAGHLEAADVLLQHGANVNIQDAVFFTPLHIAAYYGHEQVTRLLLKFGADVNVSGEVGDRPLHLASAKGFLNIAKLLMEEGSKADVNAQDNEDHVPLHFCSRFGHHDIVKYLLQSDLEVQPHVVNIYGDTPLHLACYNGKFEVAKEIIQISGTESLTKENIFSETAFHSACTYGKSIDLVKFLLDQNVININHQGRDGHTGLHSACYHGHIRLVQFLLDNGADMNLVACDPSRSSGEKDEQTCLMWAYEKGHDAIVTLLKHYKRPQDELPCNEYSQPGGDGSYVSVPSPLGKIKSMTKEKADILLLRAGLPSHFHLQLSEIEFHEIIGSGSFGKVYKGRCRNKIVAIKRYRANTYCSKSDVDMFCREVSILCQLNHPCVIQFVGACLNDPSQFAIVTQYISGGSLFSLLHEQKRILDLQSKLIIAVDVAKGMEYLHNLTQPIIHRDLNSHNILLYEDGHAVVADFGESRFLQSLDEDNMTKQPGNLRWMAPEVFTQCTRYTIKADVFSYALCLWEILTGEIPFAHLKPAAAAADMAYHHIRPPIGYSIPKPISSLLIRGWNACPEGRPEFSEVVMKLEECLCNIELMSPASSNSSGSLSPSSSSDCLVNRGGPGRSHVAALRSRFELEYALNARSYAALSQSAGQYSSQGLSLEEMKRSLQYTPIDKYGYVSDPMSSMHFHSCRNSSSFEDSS

[2] = target: T2, Serine/threonine-protein kinase ULK3 (Homo sapiens) (UniProt Q6PHR2); experiment: Selectivity interaction (KinomeScan (DiscoverX)) EUB0001079a ULK3; details: at 1 µM
T2 sequence (whole entry): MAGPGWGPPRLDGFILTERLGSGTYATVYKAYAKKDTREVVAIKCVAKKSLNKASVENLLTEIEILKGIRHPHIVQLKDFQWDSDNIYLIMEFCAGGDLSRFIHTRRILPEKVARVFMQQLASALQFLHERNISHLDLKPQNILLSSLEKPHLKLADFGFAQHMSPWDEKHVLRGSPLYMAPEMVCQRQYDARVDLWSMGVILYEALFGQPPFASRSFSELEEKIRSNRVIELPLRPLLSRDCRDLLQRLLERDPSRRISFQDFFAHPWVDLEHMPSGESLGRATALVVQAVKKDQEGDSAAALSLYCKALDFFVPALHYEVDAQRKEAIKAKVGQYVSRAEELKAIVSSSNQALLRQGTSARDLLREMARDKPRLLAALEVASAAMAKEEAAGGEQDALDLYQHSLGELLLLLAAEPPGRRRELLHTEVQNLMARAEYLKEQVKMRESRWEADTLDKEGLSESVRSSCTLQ

[3] = target: T3, Phosphatidylinositol 3-kinase C2 domain-containing subunit gamma (Homo sapiens) (UniProt O75747); experiment: Selectivity interaction (KinomeScan (DiscoverX)) EUB0000595a PIK3C2G; details: at 10 µM
T3 sequence (whole entry): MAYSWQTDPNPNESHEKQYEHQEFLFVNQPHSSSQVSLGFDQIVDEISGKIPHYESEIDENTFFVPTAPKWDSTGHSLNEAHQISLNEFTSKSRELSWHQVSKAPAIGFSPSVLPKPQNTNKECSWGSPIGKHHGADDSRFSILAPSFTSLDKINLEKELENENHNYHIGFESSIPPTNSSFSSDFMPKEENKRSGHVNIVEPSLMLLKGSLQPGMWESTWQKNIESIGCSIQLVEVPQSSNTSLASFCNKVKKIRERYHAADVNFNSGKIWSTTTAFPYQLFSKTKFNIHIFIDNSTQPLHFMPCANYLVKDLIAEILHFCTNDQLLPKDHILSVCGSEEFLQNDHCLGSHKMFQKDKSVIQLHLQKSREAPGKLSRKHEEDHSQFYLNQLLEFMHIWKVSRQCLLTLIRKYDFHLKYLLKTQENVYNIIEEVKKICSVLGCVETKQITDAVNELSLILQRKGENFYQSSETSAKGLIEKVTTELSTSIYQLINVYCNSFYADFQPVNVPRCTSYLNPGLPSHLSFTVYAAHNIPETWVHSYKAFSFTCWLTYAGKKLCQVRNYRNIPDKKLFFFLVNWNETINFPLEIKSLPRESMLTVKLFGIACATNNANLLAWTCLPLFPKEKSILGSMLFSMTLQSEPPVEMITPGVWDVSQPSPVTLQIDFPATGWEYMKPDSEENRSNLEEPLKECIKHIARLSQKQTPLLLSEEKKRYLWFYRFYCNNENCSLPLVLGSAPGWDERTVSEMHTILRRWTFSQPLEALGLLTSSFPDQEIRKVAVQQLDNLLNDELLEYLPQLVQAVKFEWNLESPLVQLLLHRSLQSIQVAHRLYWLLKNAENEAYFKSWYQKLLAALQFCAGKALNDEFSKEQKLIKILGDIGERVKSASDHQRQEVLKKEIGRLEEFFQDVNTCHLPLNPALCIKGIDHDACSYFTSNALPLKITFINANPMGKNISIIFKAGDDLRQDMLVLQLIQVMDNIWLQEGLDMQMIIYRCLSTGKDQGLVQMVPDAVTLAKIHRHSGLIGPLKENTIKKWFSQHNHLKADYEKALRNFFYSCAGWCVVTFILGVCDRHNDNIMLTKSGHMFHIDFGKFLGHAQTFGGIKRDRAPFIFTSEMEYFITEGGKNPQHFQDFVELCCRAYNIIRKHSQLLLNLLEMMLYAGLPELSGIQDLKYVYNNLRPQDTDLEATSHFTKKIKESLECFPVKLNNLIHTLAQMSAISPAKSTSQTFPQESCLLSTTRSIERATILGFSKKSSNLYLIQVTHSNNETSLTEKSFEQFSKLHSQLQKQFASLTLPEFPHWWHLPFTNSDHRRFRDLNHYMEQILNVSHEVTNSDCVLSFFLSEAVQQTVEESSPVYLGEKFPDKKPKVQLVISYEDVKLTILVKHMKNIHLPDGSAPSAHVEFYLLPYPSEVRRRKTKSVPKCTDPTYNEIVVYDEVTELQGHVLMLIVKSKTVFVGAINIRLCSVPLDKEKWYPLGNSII

## Nc1cnc(N2CCc3cc(S(=O)(=O)Nc4c(F)cc(Cl)cc4F)cc(N4CCCC4=O)c32)nc1 [TP-020n]
[1]
  % of control: 49%
[2]
  % of control: 100%

## COCC(=O)NC/C=C/c1ccc2ncnc(Nc3ccc(Oc4ccc(C)nc4)c(C)c3)c2c1 [CP-724714]
[3]
  % of control: 24%
